Experimental data: a melting point compilation (Tetko et al.; mined from patent text by program, amines drawn as free bases though some values may be those of a salt)

melting point [°C] | SMILES
190 to 192 | CS(=O)(=O)c1cc(-c2nc(=O)c3ccccc3s2)ccn1
141 to 144 | CCN(CC)CC1CCCCN1CC(=O)N1c2ccccc2NC(=O)c2c1ccn2C (configuration not stated)
241 to 242 | O=C(O)c1cc2ccccc2c(=O)o1
161 to 162 | CC(C)(C)OCOc1cc(NC(=O)NC(=O)c2ccc(C#N)cc2)ccc1OCC(=O)OC(C)(C)C
196 to 197 | CC(C)n1nc(-c2cc(I)c(N)nc2-c2ccccc2)ccc1=O
103 to 105 | CC(NC=O)c1ccccc1C(F)(F)C(F)(F)c1ccccc1 (configuration not stated)
166 to 167 | CCN(c1ccc(Br)cc1)c1nc(=O)c2cccnc2s1
110 to 112 | COCOc1cccc2c(=O)[nH]c(CCCN(C)C)cc12
153 to 155 | CCOC(=O)c1c(CC(=O)O)n(-c2ccc(OC(C)C)cc2)c2ccc(Oc3ccc(CCl)cn3)cc12
312 to 314 | O=C(O)c1ccc(-c2ccc3ncnc(Nc4ccc(OCc5cccc(F)c5)c(Cl)c4)c3c2)s1
142 to 144 | O=C(O)COc1cccc(COC(=O)N(c2ccccc2)c2ccccc2)c1
95 | Cc1cccc(Nc2ccc(-c3ccccc3)cc2)c1
119 to 122 | CC=C1C=C(OC)N=C(N)N1
156 | CCCOc1ccc(/C=C/c2nc3c(c(=O)n(CC)c(=O)n3CC)n2C)cc1
118 to 120 | CC(C)OC(=O)Cn1c(-c2ccc(Cl)cc2)nc2cccnc21
54 to 55 | CCCCCCC/C=C/C(=O)Nc1ccccc1
185 to 186 | NCC(=O)Nc1c(Br)cc(Br)cc1Br
119 to 120 | Nc1c([N+](=O)[O-])cc(Br)c2c1CN(Cc1ccc(C(F)(F)F)cc1)CC2
128 to 130 | COc1cc(NC(C)=O)c(Cl)cc1C(=O)NN1CCN(CCC(C)C)CC1
106 to 107 | CCOC(=O)CN(c1c([N+](=O)[O-])cc([N+](=O)[O-])c2ccccc12)S(=O)(=O)c1ccc(C)cc1
82 | Cn1nccc1OCc1c(S(C)(=O)=O)ccc(C(=O)C2C(=O)CC(C)(C)CC2=O)c1Cl
94 to 97 | COC1CC(OCc2ccccc2)C(OS(=O)(=O)c2ccc(C)cc2)C(COC(c2ccccc2)(c2ccccc2)c2ccccc2)O1 (configuration not stated)
160 to 162 | COc1ccc(-c2cc(-c3ccccc3)[nH]c2C(=O)Nc2ccc(C(=O)NO)o2)cc1

melting point [°C] | SMILES
85 to 87 | CCCCNc1nc(C)c(C(=O)OCC)c2c1nnn2CC
153 to 154 | CCOC(=O)c1ccc(-c2coc(-c3ccc(Cl)cc3)n2)cc1
182 to 184 | NC(=O)CCC(C(=O)O)N1C(=O)c2cccc([N+](=O)[O-])c2C1=O (configuration not stated)
108 to 109 | C(=C\c1nc(COc2ccc(CCCn3cccc3)cc2)co1)/c1ccccc1
70 | CCCCC(CC)COC(=O)CC(C(=O)OCC(CC)CCCC)S(=O)(=O)O (configuration not stated)
148 to 152 | CCCCc1nc(Cl)c(C(=O)O)n1Cc1ccc2oc(-c3ccccc3C(=O)O)c(Br)c2c1
174 to 175 | CC(O)c1nsc2nc3ccccc3n12 (configuration not stated)
222 to 223 | O=C(O)Cc1ccc2nc(Nc3ccccc3)oc2c1
128 to 130 | CCCCCCCc1cc2cn(C(CC)CC)c(=O)nc2o1
187 | N#Cc1n[nH]c(N)c1SC(F)(F)F
183 to 184 | COc1cc(OCCCN2CCc3cc(OC)c(OC)cc3C2)ccc1NC(=O)c1cccc2c(=O)c3cccc(C)c3[nH]c12
57.8 to 58.1 | BrCCc1ccc2c(c1)CCC2
68 to 83 | COC[C@@H](OC)[C@@H](OC)[C@H](OC)[C@H](CN(C)C(=O)c1ccc2n1Cc1ccccc1N(C(=O)c1ccc(C3=CCCCC3)c(C)c1)C2)OC
143 to 145 | COc1cccc2c(CC(=O)O)coc12
222 to 225 | O=[N+]([O-])c1cc2nccnc2cc1Sc1cccc2cnccc12
208 to 209 | CC(C)Cn1c(=O)n(C)c(=O)c2c(Sc3ccc(N)cn3)c(Cc3cccc4ccccc34)sc21
117 to 119 | C/C=C/c1cc(OC)c2c(c1)[C@@H](C)[C@H](c1cc(CO)c(O)c(OC)c1)O2 (relative stereo)
156 to 157 | N=C(N)Nc1nc(CCCCC(=N)NS(N)(=O)=O)cs1
122 to 123 | COc1cc(C(C)C)c(NC(=O)CN2CCN(CCSc3nc4cccc(C(F)(F)F)c4o3)CC2)c(C(C)C)c1
160 | O=C(NCC(=O)N1[C@@H](c2ccccc2O)CC[C@H]1c1ccccc1)Nc1cccc(C(=O)O)c1 (racemic)
260 to 261 | c1ccc2c(c1)nc(Nc1ccc3cc[nH]c3c1)c1nc(C3CCCC3)[nH]c12
129 to 131 | CCCCCCCCCCCCCCCCSc1cc(O)c(Sc2nnnn2-c2ccccc2)cc1O
203 to 205 | CCOc1cc2c(cc1OC)C(c1ccc(C(=O)O)cc1)=N[C@@H]1CCOC[C@H]21

melting point [°C] | SMILES
228 to 229 | O=CN1CCN(c2nc3ccc(Cl)ccc-3n2)CC1
138 to 142 | Cc1ccc(CNC(=S)N2CCc3c([nH]c4ccccc34)C2c2ccc3c(c2)OCO3)cc1C (configuration not stated)
115 to 117 | O=[N+]([O-])c1ccc(Sc2cccc3cnccc23)nc1
198 to 199 | COc1cc(C2C3=C(COC3=O)Nc3ccc4cc(C)[nH]c4c32)ccc1F (configuration not stated)
196 to 220 | COc1cccc(C(=O)OC(=C2C(=O)N(C(N)=O)c3cc(Cl)c(F)cc32)c2cccs2)c1
147 to 149 | CSc1ncc(Cl)cc1C#N
107 to 109 | O=C(CSc1ncc(Br)cn1)c1ccccc1
164 to 166 | CCCCCn1c(C)cc(=O)c(C(=O)Nc2ccccc2)c1-c1ccccc1
115 to 117 | CCc1c(CCN2CCC(c3noc4cc(F)ccc34)CC2)sc2c1NC(=O)CCC2
60 to 65 | Cn1cncc1-c1cccc(Nc2ccc3ccccc3n2)c1
93 to 96 | CN(C)Cc1ccc(CSCCN=CNS(=O)(=O)c2ccc(Cl)cc2)o1
115 to 117 | Cc1ccccc1CC(=O)c1cccc(I)c1
96 to 101 | CN(C)CCCNS(=O)(=O)c1ccc(C(C)(C)c2cc(C(C)(C)CC(C)(C)C)cc(-n3nc4ccccc4n3)c2O)cc1
85 to 87 | O=Cc1c(O)c(Cl)cc(Cl)c1OCCCCC(=O)O
176 to 180 | CC(C)(C)OC(=O)N1CCC(O)(CS(N)(=O)=O)CC1
95.5 to 97.5 | CCC(C)N1CC(=O)N(C(C)CC)CC1=O (configuration not stated)
89 to 91 | c1ccc(CN(CCNC(c2ccccc2)c2ccccc2)Cc2ccccc2)cc1
145 to 147 | CC(=O)Oc1ccc2nc(C#N)nc(Cl)c2c1
115 to 117 | CCC=C(c1ccccc1N1CCCCC1)C(C(N)=O)c1ccc(C(=O)OCC)cc1 (configuration not stated)
128 | COc1ccnc(CSc2nc3ccc(F)cc3[nH]2)c1C
67 to 69 | COC(=O)N(Oc1cc(Cl)cc(Cl)c1)C(=O)N(C)C(C)C
98 to 100 | CCCC1(CC(=O)O)OCCc2c1[nH]c1c(F)ccc(C(=O)N3CCOCC3)c21 (configuration not stated)
204 to 206 | O=C(CCn1cnc2c(=O)[nH]cnc21)NCCc1c[nH]c2ccccc12

melting point [°C] | SMILES
143 to 145 | CC(=O)NCCOc1cc(N)c(Cl)cc1C(=O)NCCN(C)C
174 to 176 | O=[N+]([O-])c1cccc(CN2CCC(c3cc(-c4ccc(Cl)cc4)[nH]n3)CC2)c1
231 to 232 | Cc1ccccc1-c1c(C(=O)O)c(=O)n(C)c2cc3c(cc12)CCC3
62 to 63 | CCC(C)n1c2ccccc2c2ccccc21 (configuration not stated)
291 to 294 | COc1ccc(-c2cnc(C=NN3CC(=O)NC3=O)o2)cc1
206 to 208 | CN(C)c1ccc2c(c1)CN(c1cccc(-c3cc(Nc4ccncn4)c(=O)n(C)c3)c1CO)C2=O
161 to 162 | COc1ccnc(CCc2nc3cc(-c4ccc(OCc5ccccc5)cc4)cnc3[nH]2)c1
72 to 74 | c1ccc(-c2ccc(CCOc3ncnc4ccccc34)cc2)cc1
129 to 131 | Nc1nc(-c2cc(OCc3ccccc3)no2)cs1
95 to 104 | COCCCOc1cc(C[C@@H](C[C@H](N)[C@@H](O)C[C@H](C(=O)NCC(C)(C)C(N)=O)C(C)C)C(C)C)ccc1OC
228 to 230 | Cn1cc(C(=O)NCc2ccc(Cl)cc2)c(=O)c2cccc(C#CCO)c21
164 to 165 | N#CN=C(Nc1ccc(C#N)c(Br)c1O)Nc1cccc2c1OCO2
126 to 128 | CC1(C)CCc2ccccc2C1c1cncnc1SCF (configuration not stated)
80 to 81 | CCCCCCCc1ccc(C(=O)CCCCC(=O)O)cc1
178 to 181 | O=C(Nc1ccc(Cl)cn1)c1cc(Cl)ccc1NCC1CCN(C2CCSC2)CC1 (configuration not stated)
202 to 204 | Oc1ncc(-c2ccccc2)s1
132 | C=C(C)n1c(=O)n(CCN2CCC(Cc3c[nH]c4ccc(F)cc34)CC2)c2ccccc21
74 to 77 | Cc1cccc(-c2[nH]c(C(C)C)nc2-c2cccc(-c3cccnc3)c2)n1
71 to 79 | CC(OC(=O)C1(C(=O)O)Oc2ccc(C[C@@H](C)NC[C@H](O)c3cccc(Cl)c3)cc2O1)c1ccccc1 (some centres not stated)
120 | CN(C)CCC1(CO)c2ccccc2N(C)c2cc(Cl)ccc21 (configuration not stated)
90 to 98 | CCCNC(=O)C(C)Cc1ccc2c(CCC)cn(Cc3ccc(C(=O)O)cc3OC)c2c1 (configuration not stated)
187 to 190 | CNc1ccc(C(=O)NCCC(=O)O)cc1[N+](=O)[O-]
60 to 64 | CCOC(=O)[C@H](CC(C)C)NC(=O)[C@@H]1CCCN1C(=O)OCc1ccccc1

SMILES | melting point [°C]
CC(C)(O)C#Cc1ncn2c1[C@@H]1CCCN1C(=O)c1c(Br)cccc1-2 | 227 to 228
C[C@@H]1N(c2ccc(C#N)c(C(F)(F)F)c2)C(=O)C[C@]1(C)O | 134 to 137
FC(F)(F)C1(c2cc(Cl)cc(Cl)c2)CC(c2ccc(CCl)cc2)=NO1 (configuration not stated) | 98 to 100
COc1ccc(-c2ccnc3c(C(=O)c4cccs4)cnn23)cc1NC(=O)NC(C)C | 202 to 204
O=C(CCl)c1ccc(Oc2ccc(C(=O)CCl)cc2)cc1 | 129 to 130
